From patent US8987256B2, “Oxo-heterocyclic substituted carboxylic acid derivatives and the use thereof” (Bayer Intellectual Property GmbH, priority 2008, dated 2015)

How the values were obtained:
saphenous artery rings = test: Vasorelaxant effect in vitro (phenylephrine-contracted artery rings); parameters: species or system Rabbits; details: Oryctolagus cuniculus, concentration reducing phenylephrine-induced contraction by 50%
Method: Rabbits are anesthetized and sacrificed by intravenous injection of thiopental sodium (about 50 mg/kg) and exsanguinated. The saphenous artery is removed and divided into rings 3 mm wide. The rings are mounted singly on in each case a pair of triangular hooks open at the end and made of 0.3 mm-thick special wire (Remanium®). Each ring is placed under an initial tension in 5 ml organ baths with Krebs-Henseleit solution which is at 37° C., is gassed with carbogen and has the following composition: NaCl 119 mM; KCl 4.8 mM; CaCl2×2H2O 1 mM; MgSO4×7H2O 1.4 mM; KH2PO4 1.2 mM; NaHCO3 25 mM; glucose 10 mM; bovine serum albumin 0.001%. The force of contraction is detected with Statham UC2 cells, amplified and digitized via A/D converters (DAS-1802 HC, Keithley Instruments, Munich) and recorded in parallel on chart recorders. Contractions are induced by addition of phenylephrine.
After several (generally 4) control cycles, the substance to be investigated is added in each further run in increasing dosage, and the level of the contraction achieved under the influence of the test substance is compared with the level of the contraction reached in the last preceding run. The concentration necessary to reduce the contraction reached in the preceding control by 50% is calculated from this (IC50). The standard application volume is 5 μl. The proportion of DMSO in the bath solution corresponds to 0.1%.

[1] = molecular target: T1, recombinant guanylate cyclase reporter cell line (Rattus norvegicus, UniProt P20595); test: sGC-activating activity in the CHO reporter cell in vitro; type: cell-based
T1 construct: expressed in transfected cells; host or cells: CHO reporter cell line
T1 sequence (P20595 1-619): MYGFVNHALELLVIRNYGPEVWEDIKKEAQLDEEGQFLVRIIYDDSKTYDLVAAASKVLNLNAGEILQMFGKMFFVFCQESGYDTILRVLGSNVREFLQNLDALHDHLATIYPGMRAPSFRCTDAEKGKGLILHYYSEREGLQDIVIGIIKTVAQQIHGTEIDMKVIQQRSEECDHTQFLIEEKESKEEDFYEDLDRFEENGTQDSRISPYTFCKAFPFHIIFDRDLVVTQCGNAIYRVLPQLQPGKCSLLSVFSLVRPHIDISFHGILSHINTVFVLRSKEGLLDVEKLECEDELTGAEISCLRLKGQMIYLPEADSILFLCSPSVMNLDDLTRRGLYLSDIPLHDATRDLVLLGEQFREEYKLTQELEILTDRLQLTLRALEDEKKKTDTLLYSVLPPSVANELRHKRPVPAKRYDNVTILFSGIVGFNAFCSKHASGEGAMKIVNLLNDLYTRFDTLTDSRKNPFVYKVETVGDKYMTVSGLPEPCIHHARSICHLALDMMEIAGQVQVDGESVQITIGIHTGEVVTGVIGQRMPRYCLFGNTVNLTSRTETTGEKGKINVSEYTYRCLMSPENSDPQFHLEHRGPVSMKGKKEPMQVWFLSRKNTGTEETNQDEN
T1 sequence (P19686 1-690 partner): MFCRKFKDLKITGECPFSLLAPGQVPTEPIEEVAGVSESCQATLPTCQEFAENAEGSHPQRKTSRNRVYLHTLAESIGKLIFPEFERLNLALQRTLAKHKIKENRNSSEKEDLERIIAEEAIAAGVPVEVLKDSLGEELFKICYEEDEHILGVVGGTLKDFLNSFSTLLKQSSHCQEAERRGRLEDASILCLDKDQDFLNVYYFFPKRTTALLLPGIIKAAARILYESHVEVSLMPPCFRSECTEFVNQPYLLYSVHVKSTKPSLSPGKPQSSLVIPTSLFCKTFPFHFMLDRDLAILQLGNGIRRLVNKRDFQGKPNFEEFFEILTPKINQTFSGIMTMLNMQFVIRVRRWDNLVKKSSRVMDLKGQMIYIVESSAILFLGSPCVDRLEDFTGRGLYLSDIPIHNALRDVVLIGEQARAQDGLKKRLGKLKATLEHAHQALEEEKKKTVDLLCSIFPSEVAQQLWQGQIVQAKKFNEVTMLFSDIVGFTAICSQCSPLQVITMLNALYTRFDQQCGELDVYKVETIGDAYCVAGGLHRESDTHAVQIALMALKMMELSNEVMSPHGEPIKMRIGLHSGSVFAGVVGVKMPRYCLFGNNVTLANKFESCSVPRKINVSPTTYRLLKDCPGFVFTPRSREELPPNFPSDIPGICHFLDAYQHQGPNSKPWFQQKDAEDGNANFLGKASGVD
Method: The cellular action of the compounds according to the invention is determined at a recombinant guanylate cyclase reporter cell line, as described in F. Wunder et al., Anal. Biochem. 339, 104-112 (2005).

[2] = molecular target: T2, soluble guanylate cyclase (sGC) (Rattus norvegicus, UniProt P20595); test: Activating action at the sGC enzyme in vitro (PPi detection, luciferase); type: biochemical; details: for EC50: read-out: EC50 (concentration at 50% of maximum efficacy), activating action at the sGC enzyme
T2 construct: made in house; host or cells: baculovirus/Sf9 insect cells
T2 sequence (P20595 1-619): T1 sequence (P20595 1-619)
T2 sequence (P19686 1-690 partner): T1 sequence (P19686 1-690 partner)
In short: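 Rat sGC (0–10 nM) preincubated 10 min at room temperature with compound in TEA buffer, pH 7.5; reaction started with GTP (1.25 mM solution). PPi formed read continuously by luciferase luminescence; stimulation expressed relative to unstimulated enzyme. Heme-free enzyme tested after 30 min with 25 μM ODQ.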

| IC50 (saphenous artery rings) [nM] | MEC (minimum effective concentration), sGC-activating activity in the CHO reporter cell [1] [nM] | MEC (minimum effective concentration), activating action at the sGC enzyme [2] [nM] | EC50 [2] [nM] | Compound |
| --- | --- | --- | --- | --- |
| 158 | 1 | 0.9 | 21 | O=C(Nc1cc(F)cc(CC2(C(=O)O)CC2)c1)C(c1ccc(CN2N=C(c3ccccc3)OCC2=O)cc1)C1CCCC1 (single isomer, unassigned) [Example 237, 1-{3-[(Cyclopentyl{4-[(5-oxo-2-phenyl-5,6-dihydro-4H-1,3,4-oxadiazin-4-yl)methyl]phenyl}acetyl)amino]-5-fluorobenzyl}cyclopropanecarboxylic acid] |
| 45 | 3 | 0.2 | 5.4 | O=C(Nc1cccc(CC2(C(=O)O)CC2)c1)C(c1ccc(Cn2nc(-c3ccccc3)ccc2=O)cc1)C1CCCC1 (stereo not drawn) [Example 156, 1-{3-[(cyclopentyl{4-[(6-oxo-3-phenylpyridazin-1(6H)-yl)methyl]phenyl}acetyl)amino]benzyl}-cyclopropanecarboxylic acid] |
| 37 | 0.2 | 0.1 | 1.5 | CC(C(C(=O)Nc1cc(CC2(C(=O)O)CC2)ccc1F)c1ccc(CN2N=C(c3ccccc3)OCC2=O)cc1)C(F)(F)F (stereo not drawn) [Example 186, 1-{4-fluoro-3-[(4,4,4-trifluoro-3-methyl-2-{4-[(5-oxo-2-phenyl-5,6-dihydro-4H-1,3,4-oxadiazin-4-yl)methyl]phenyl}butanoyl)amino]benzyl}-cyclopropanecarboxylic acid] |
| 86 | 1 | 0.5 | 18 | O=C(Nc1cccc(CC2(C(=O)O)CC2)c1)[C@H](c1ccc(CN2N=C(c3ccccc3)OCC2=O)cc1)C1CCCC1 [Example 204, (+)-1-(3-{[(2S)-2-Cyclopentyl-2-{4-[(5-oxo-2-phenyl-5,6-dihydro-4H-1,3,4-oxadiazin-4-yl)-methyl]phenyl}acetyl]amino}benzyl)cyclopropane carboxylic acid] |
| 11 | 0.1 | 0.4 | 19 | O=C(Nc1cccc(CC2(C(=O)O)CC2)c1)[C@H](c1ccc(CN2Cc3c(F)cccc3C2=O)cc1)C1CCCC1 [Example 214] |
| 490 | 1 | 1 | 20 | O=C(O)CCc1ccc(F)c(NC(=O)[C@H](c2ccc(CN3N=C(c4ccccc4)OCC3=O)cc2)C2CCCC2)c1 [Example 224] |
